Measured values: patent US4409210A, “Antibiotic compound” (priority 1982, dated 1983)
In brackets after ≈: the same amount, converted by molar mass. Read-outs that look alike come from different tables or passages of the source.

Columns and labels:
Format in all cases: cell-based
[1] = system: Staphylococcus aureus 209P; test: MIC, serial two-fold dilution method (aerobic); conditions: read-out: minimum inhibitory concentration (MIC)
[2] = system: Staphylococcus aureus Smith; test: MIC, serial two-fold dilution method (aerobic); conditions: read-out: minimum inhibitory concentration (MIC)
[3] = system: Staphylococcus aureus A9856; test: MIC, serial two-fold dilution method (aerobic)
[4] = system: Staphylococcus aureus A20610; test: MIC, serial two-fold dilution method (aerobic)
[5] = system: Staphylococcus aureus A22421; test: MIC, serial two-fold dilution method (aerobic)
[6] = system: Bacillus anthracis IID-115; test: microbe, parasite or virus in culture; conditions: Bacillus anthracis, IID115, read-out: minimum inhibitory concentration (MIC)
[7] = system: Escherichia coli NIHJ; test: MIC, serial two-fold dilution method (aerobic); conditions: read-out: minimum inhibitory concentration (MIC)
[8] = system: Clostridium chauvoei A9561; test: MIC, serial two-fold dilution method (anaerobic)
Procedure: (§1) The minimum inhibitory concentration (MIC) of Bu-2517 was determined for a variety of aerobic and anaerobic bacteria by the serial two-fold dilution method using a multi-inoculating apparatus. Mueller-Hinton agar was generally used for aerobic bacteria, GC medium (Eiken) for fastidious aerobic organisms such as streptococci, Neisseria and Haemophilus species, and GAM agar medium (Nissui) for anaerobic bacteria. The inoculum size was adjusted to 10^6 CFU/ml for streptococci, Neisseria and Haemophilus species, 10^4 for other aerobic bacteria and 10^7 -10^8 for all anaerobic organisms. Amphomycin, ampicillin, chloramphenicol, clindamycin, erthromycin, kanamycin and vancomycin were used as reference antibiotics.

[9] = system: Clostridium difficile A21675; test: MIC, serial two-fold dilution method (anaerobic); conditions: Clostridioides difficile
Procedure: as §1

[10] = system: Clostridium difficile A21972; test: MIC, serial two-fold dilution method (anaerobic); conditions: Clostridioides difficile
Procedure: as §1

[11] = system: Clostridium septicum A21869; test: MIC, serial two-fold dilution method (anaerobic)
Procedure: as §1

[12] = system: Clostridium ramosum A21970; test: MIC, serial two-fold dilution method (anaerobic); conditions: Thomasclavelia ramosa
[13] = system: Propionibacterium acnes A21953; test: MIC, serial two-fold dilution method (anaerobic); conditions: Cutibacterium acnes
[14] = system: Propionibacterium acnes A22650; test: MIC, serial two-fold dilution method (anaerobic); conditions: Cutibacterium acnes
[15] = system: Peptostreptococcus anaerobius A21905; test: MIC, serial two-fold dilution method (anaerobic)
[16] = system: Peptostreptococcus intermedius A21881; test: MIC, serial two-fold dilution method (anaerobic)
[17] = system: Bacteroides fragilis CUH-9; test: MIC, serial two-fold dilution method (anaerobic)
[18] = system: Bacteroides fragilis CUH-24; test: MIC, serial two-fold dilution method (anaerobic)
[19] = system: Bacteroides fragilis A20926; test: MIC, serial two-fold dilution method (anaerobic)
[20] = system: Bacteroides fragilis A21900; test: MIC, serial two-fold dilution method (anaerobic)
[21] = system: Bacteroides fragilis A22053; test: MIC, serial two-fold dilution method (anaerobic)
[22] = system: Fusobacterium necrophorum A20013; test: MIC, serial two-fold dilution method (anaerobic)
[23] = system: Fusobacterium nucleatum A21906; test: MIC, serial two-fold dilution method (anaerobic)
[24] = system: Fusobacterium varium ATCC 8501; test: MIC, serial two-fold dilution method (anaerobic)
[25] = system: Veillonella alcalescens A21914-1; test: MIC, serial two-fold dilution method (anaerobic); conditions: Veillonella parvula
[26] = system: Veillonella parvula A20010; test: MIC, serial two-fold dilution method (anaerobic)

Structure (SMILES): CC[C@H]1OC(=O)[C@H](C)[C@@H](O[C@H]2C[C@@](C)(OC)[C@@H](O)[C@H](C)O2)[C@H](C)[C@@H](O[C@@H]2O[C@H](C)C[C@H](N(C)C)[C@H]2O)[C@](C)(O)C[C@@H](C)C(=O)[C@H](C)[C@@H](O)[C@]1(C)O [Erythromycin]
- MIC ([1]; Staphylococcus aureus 209P, Mueller-Hinton agar, inoculum 10^4): 0.1 µg/mL (≈ 0.136 µM)
- MIC ([2]; Staphylococcus aureus Smith, Mueller-Hinton agar, inoculum 10^4): 0.2 µg/mL (≈ 0.273 µM)
- MIC ([3]; Staphylococcus aureus A9856, Mueller-Hinton agar, inoculum 10^4, read-out: minimum inhibitory concentration (MIC)): 0.2 µg/mL (≈ 0.273 µM)
- MIC ([4]; Staphylococcus aureus A20610, Mueller-Hinton agar, inoculum 10^4, read-out: minimum inhibitory concentration (MIC)): > 100 µg/mL
- MIC ([5]; Staphylococcus aureus A22421, Mueller-Hinton agar, inoculum 10^4, read-out: minimum inhibitory concentration (MIC)): 6.3 µg/mL (≈ 8.58 µM)
- MIC [6]: 0.4 µg/mL (≈ 0.545 µM)
- MIC ([7]; Escherichia coli NIHJ, Mueller-Hinton agar, inoculum 10^4): 100 µg/mL (≈ 136 µM)
- MIC ([8]; Clostridium chauvoei A9561, GAM agar medium, inoculum 10^7-10^8, read-out: minimum inhibitory concentration (MIC)): 1.6 µg/mL (≈ 2.18 µM)
- MIC ([9]; Clostridium difficile A21675, GAM agar medium, inoculum 10^7-10^8, read-out: minimum inhibitory concentration (MIC)): > 100 µg/mL
- MIC ([10]; Clostridium difficile A21972, GAM agar medium, inoculum 10^7-10^8, read-out: minimum inhibitory concentration (MIC)): 3.1 µg/mL (≈ 4.22 µM)
- MIC ([11]; Clostridium septicum A21869, GAM agar medium, inoculum 10^7-10^8, read-out: minimum inhibitory concentration (MIC)): 0.8 µg/mL (≈ 1.09 µM)
- MIC ([12]; Clostridium ramosum A21970, GAM agar medium, inoculum 10^7-10^8, read-out: minimum inhibitory concentration (MIC)): 0.1 µg/mL (≈ 0.136 µM)
- MIC ([13]; Propionibacterium acnes A21953, GAM agar medium, inoculum 10^7-10^8, read-out: minimum inhibitory concentration (MIC)): 0.8 µg/mL (≈ 1.09 µM)
- MIC ([14]; Propionibacterium acnes A22650, GAM agar medium, inoculum 10^7-10^8, read-out: minimum inhibitory concentration (MIC)): < 0.0063 µg/mL
- MIC ([15]; Peptostreptococcus anaerobius A21905, GAM agar medium, inoculum 10^7-10^8, read-out: minimum inhibitory concentration (MIC)): 0.8 µg/mL (≈ 1.09 µM)
- MIC ([16]; Peptostreptococcus intermedius A21881, GAM agar medium, inoculum 10^7-10^8, read-out: minimum inhibitory concentration (MIC)): 0.4 µg/mL (≈ 0.545 µM)
- MIC ([17]; CUH9, Bacteroides fragilis CUH-9, GAM agar medium, inoculum 10^7-10^8, read-out: minimum inhibitory concentration (MIC)): 6.3 µg/mL (≈ 8.58 µM)
- MIC ([18]; CUH24, Bacteroides fragilis CUH-24, GAM agar medium, inoculum 10^7-10^8, read-out: minimum inhibitory concentration (MIC)): > 100 µg/mL
- MIC ([19]; Bacteroides fragilis A20926, GAM agar medium, inoculum 10^7-10^8, read-out: minimum inhibitory concentration (MIC)): < 0.05 µg/mL
- MIC ([20]; Bacteroides fragilis A21900, GAM agar medium, inoculum 10^7-10^8, read-out: minimum inhibitory concentration (MIC)): 0.4 µg/mL (≈ 0.545 µM)
- MIC ([21]; Bacteroides fragilis A22053, GAM agar medium, inoculum 10^7-10^8, read-out: minimum inhibitory concentration (MIC)): 3.1 µg/mL (≈ 4.22 µM)
- MIC ([22]; Fusobacterium necrophorum A20013, GAM agar medium, inoculum 10^7-10^8, read-out: minimum inhibitory concentration (MIC)): > 100 µg/mL
- MIC ([23]; Fusobacterium nucleatum A21906, GAM agar medium, inoculum 10^7-10^8, read-out: minimum inhibitory concentration (MIC)): 1.6 µg/mL (≈ 2.18 µM)
- MIC ([24]; ATCC8501, Fusobacterium varium ATCC 8501, GAM agar medium, inoculum 10^7-10^8, read-out: minimum inhibitory concentration (MIC)): 1.6 µg/mL (≈ 2.18 µM)
- MIC ([25]; A219141, Veillonella alcalescens A21914-1, GAM agar medium, inoculum 10^7-10^8, read-out: minimum inhibitory concentration (MIC)): 0.2 µg/mL (≈ 0.273 µM)
- MIC ([26]; Veillonella parvula A20010, GAM agar medium, inoculum 10^7-10^8, read-out: minimum inhibitory concentration (MIC)): 3.1 µg/mL (≈ 4.22 µM)

Structure (SMILES): CN[C@H](CC(C)C)C(=O)N[C@H]1C(=O)N[C@@H](CC(N)=O)C(=O)N[C@H]2C(=O)N[C@H]3C(=O)N[C@H](C(=O)N[C@H](C(=O)O)c4cc(O)cc(O)c4-c4cc3ccc4O)[C@H](O)c3ccc(c(Cl)c3)Oc3cc2cc(c3O[C@@H]2O[C@H](CO)[C@@H](O)[C@H](O)[C@H]2O[C@H]2C[C@](C)(N)[C@H](O)[C@H](C)O2)Oc2ccc(cc2Cl)[C@H]1O [Vancomycin]
- MIC ([1]; Staphylococcus aureus, 209P): 0.4 µg/mL (≈ 0.276 µM)
- MIC ([2]; Staphylococcus aureus): 0.8 µg/mL (≈ 0.552 µM)
- MIC ([3]; Staphylococcus aureus, A9856, read-out: minimum inhibitory concentration (MIC)): 0.8 µg/mL (≈ 0.552 µM)
- MIC ([4]; Staphylococcus aureus, A20610, read-out: minimum inhibitory concentration (MIC)): 0.8 µg/mL (≈ 0.552 µM)
- MIC ([5]; Staphylococcus aureus, A22421, read-out: minimum inhibitory concentration (MIC)): 0.8 µg/mL (≈ 0.552 µM)
- MIC [6]: 1.6 µg/mL (≈ 1.1 µM)
- MIC ([7]; Escherichia coli): > 100 µg/mL
- MIC ([8]; Clostridium chauvoei, A9561, read-out: minimum inhibitory concentration (MIC)): 0.8 µg/mL (≈ 0.552 µM)
- MIC ([9]; A21675, read-out: minimum inhibitory concentration (MIC)): 0.8 µg/mL (≈ 0.552 µM)
- MIC ([10]; A21972, read-out: minimum inhibitory concentration (MIC)): 1.6 µg/mL (≈ 1.1 µM)
- MIC ([11]; Clostridium septicum, A21869, read-out: minimum inhibitory concentration (MIC)): 0.8 µg/mL (≈ 0.552 µM)
- MIC ([12]; A21970, read-out: minimum inhibitory concentration (MIC)): > 100 µg/mL
- MIC ([13]; A21953, read-out: minimum inhibitory concentration (MIC)): 0.8 µg/mL (≈ 0.552 µM)
- MIC ([14]; A22650, read-out: minimum inhibitory concentration (MIC)): 0.8 µg/mL (≈ 0.552 µM)
- MIC ([15]; Peptostreptococcus anaerobius, A21905, read-out: minimum inhibitory concentration (MIC)): 0.4 µg/mL (≈ 0.276 µM)
- MIC ([16]; Peptostreptococcus, A21881, read-out: minimum inhibitory concentration (MIC)): 1.6 µg/mL (≈ 1.1 µM)
- MIC ([17]; Bacteroides fragilis, CUH9, read-out: minimum inhibitory concentration (MIC)): 50 µg/mL (≈ 34.5 µM)
- MIC ([18]; Bacteroides fragilis, CUH24, read-out: minimum inhibitory concentration (MIC)): 25 µg/mL (≈ 17.3 µM)
- MIC ([19]; Bacteroides fragilis, A20926, read-out: minimum inhibitory concentration (MIC)): 3.1 µg/mL (≈ 2.14 µM)
- MIC ([20]; Bacteroides fragilis, A21900, read-out: minimum inhibitory concentration (MIC)): 6.3 µg/mL (≈ 4.35 µM)
- MIC ([21]; Bacteroides fragilis, A22053, read-out: minimum inhibitory concentration (MIC)): 50 µg/mL (≈ 34.5 µM)
- MIC ([22]; Fusobacterium necrophorum, A20013, read-out: minimum inhibitory concentration (MIC)): > 100 µg/mL
- MIC ([23]; Fusobacterium nucleatum, A21906, read-out: minimum inhibitory concentration (MIC)): 0.8 µg/mL (≈ 0.552 µM)
- MIC ([24]; Fusobacterium varium, ATCC8501, read-out: minimum inhibitory concentration (MIC)): 6.3 µg/mL (≈ 4.35 µM)
- MIC ([25]; A219141, read-out: minimum inhibitory concentration (MIC)): 1.6 µg/mL (≈ 1.1 µM)
- MIC ([26]; Veillonella parvula, A20010, read-out: minimum inhibitory concentration (MIC)): 0.8 µg/mL (≈ 0.552 µM)
